Laboratory results published in article PMC7449455 (PLoS Neglected Tropical Diseases, 2020).
Entries after “also recorded” stand apart in the source; their conditions may differ. Counter-ions that a name gives are not always drawn.

Columns and labels:
[1] = system: h1r, il-1ẞ, IL-6 expression; assay: Gene expression by qPCR in L. major ex vivo lymph node explant culture; type: cell-based, mouse; conditions: EVC; for expression of H1R / expression of IL-1ẞ: quantitative PCR
Procedure: After 48 h of ex vivo treatments, the samples were lysed in 10 μL of IGEPAL lysis buffer (10 mM Tris-HCL ph7.4 + 0.3% IGEPAL, 0.1% BSA + 150 mM NaCl and 1,500 cells/μL) and reverse transcribed (High-Capacity cDNA Reverse Transcription Kit, ThermoFisher Sci.). Mouse h1r, il-1ẞ, and Leishmania 18s genes were amplified by qPCR using the following primers: mouse h1r: Fw- […]; Rev-[…] (PrimerBank database; ID and 31542963a1); Mouse il-1β: Fw- […]; Rev- […]); Leishmania 18s: Fw-[…]; Rev- […] [28]. Amplicons were detected with SYBR. The fold change of gene expression was estimated by the delta CT method using the host cell 18s as reference gene. The percentage of parasite load was calculated with reference to DMSO controls.

L. infantum [2] = system: L. infantum; set-up: method as in PMID 31002807, PMID 24905294; conditions: cited from earlier work
L. major [3] = assay: L. major ex vivo lymph node explant culture (EVC), luminometry; type: cell-based, Leishmania major; conditions: 48 h at 34°C, luminescence
Procedure: An ex vivo explant culture (EVC) used in multiple experiments was obtained as previously described. Briefly, the mice were inoculated on the snout and rump with 10^7 metacyclic promastigotes of L. major-LUC. At 3 weeks post-infection (p.i.), the draining lymph nodes (retropharyngeal and sub-iliac) of infected animals were aseptically removed, infiltrated with 2 mg/mL of collagenase D (Roche) and incubated for 30 minutes at 37°C [21]. The cell suspension was washed in DMEM, and re-suspended in 2X supplemented culture medium, composed of DMEM (Cellgro), 10% heat-inactivated FBS (Atlanta Biologicals, Lawrenceville, GA), 2 mM Sodium pyruvate (Sigma, St. Louis MO), 2X MEM amino acids solution (Sigma), and 20 mM HEPES buffer (Cellgro). The EVC 100,000-cell suspension in 100 μL was dispensed in white luminometry plates (Costar) and exposed to 2-fold serial dilutions of 2X H1RAs in 100 μL DMEM (plain culture medium).
(§1) Cells exposed to compounds were lysed and the luciferase signal read in a plate luminometer (FLUOstar Omega, BMG Labtech) after adding 100 μL of luciferin substrate (Promega). The percentage of parasite inhibition compared with the vehicle control was calculated as = 100 - [(parasite counts in treated cells/parasite counts in vehicle wells) x 100]. The EC50 was determined by regression analysis using GraphPad (Prism 5.0) and the mean and standard error from three different experiments was utilized to estimate the final EC50. The anti-leishmanial efficacy of compounds was evaluated using L. major-LUC promastigotes in the logarithmic phase of growth (4 days). The parasites were grown in M199 supplemented with 20% FBS, 0.1% hemin and 10 mM adenine. Then, L. major was harvested and exposed to serial 2-fold dilutions of the compounds in a 100μL volume (10^6 promastigotes/mL) in 96-well white plates. After 48 h at 28°C incubation, the parasites were pelleted by centrifugation, lysed and 100 μL of luciferin substrate was added (Promega). The luciferase signal was read as described above.

[4] = Cytotoxicity in HepG2 cells (CellTiter-Glo); type: cell-based; conditions: human, HepG2 cell line, ATP quantification
Procedure: (§2) To determine compound toxicity we used the HepG2 cell line (human hepatocellular carcinoma, ATCC HB-8065) as a widely used cell-based assay. The cells were maintained in MEM (Gibco) supplemented with 5% heat-inactivated FBS, 1 mM Sodium pyruvate (Gibco) and 1X MEM amino acids solution (Sigma). Briefly, cells were added to white-bottomed 96-well plates containing 100 μL of serial 2-fold dilutions of the H1RAs. After 24 hours of culture at 37 °C, the percentage of viable cells was determined by ATP quantification using the CellTiter-Glo luminescent Cell Viability Assay (Promega) according to the manufacturer’s instructions. […] At least three different assays were carried out to determine the IVTI of each compound, which was calculated as the ratio between the CC50 obtained in the HepG2 cell line and the EC50 determined in the L. major EVC [21]. To evaluate the cytotoxicity of AZ and FX in peritoneal macrophages, adherent cells obtained from peritoneal lavage of naïve mice (10,000/well) were exposed during 24 hours at 37°C to serial drug concentrations (0.09 μM—200 μM). Cell viability was determined by CellTiter-Glo (Promega).

L. major [5] = assay: L. major-infected peritoneal macrophages with or without CD3+ T cells, luminometry; type: cell-based, Leishmania major
Procedure: The anti-leishmanial efficacy of AZ was also evaluated in adherent peritoneal macrophages from naïve mice infected in vitro with L. major promastigotes (1 cell: 10 parasites) during 4 h at 34°C. After washing extracellular parasites, infected cells were transferred to white plates (10,000/well) and exposed to AZ. The effect of T cells on parasite burden of AZ-treated cells was evaluated using CD3T+ cells. These cells were isolated by positive selection with magnetic beads (MojoSort, Biolegend) from the lymph nodes of either uninfected or L. major-infected mice (1 infected macrophage: 2 lymphocytes ratio). Parasite burden was determined after 48 h of culture by luminometry.

[6] = system: L. major-LUC promastigotes; assay: L. major-LUC promastigote culture, luminometry; type: cell-based, Leishmania major; conditions: 48 h, compared with concentrations used against intracellular amastigotes
Procedure: as §1

[7] = Cytotoxicity in naive mouse peritoneal macrophages (CellTiter-Glo); type: cell-based; conditions: read-out: CC50 (toxicity in peritoneal macrophages)
Procedure: as §2

[8] = set-up: method as in PMID 11316966; conditions: daily oral 4 mg for 21 days, chronic idiopathic urticaria; cited from earlier work
L. major [9] = assay: In vivo efficacy in BALB/c mice infected with L. major-LUC
Procedure: Mice were infected in the rump with 10^7 opsonized promastigotes of L. major-LUC as we previously described. The animals were treated starting at day 3 p.i. for up to 10 days. AZ (0.0625 and 0.125 mg/mouse) and FX (40 and 80 mg/kg) were dissolved in sterile PBS and administered by intralesional injection (ID) or gavage (PO), respectively. Mice receiving AZ were treated 3 times at 48-hour intervals. Control mice received sterile PBS according to the route used by each H1RAs (ID or PO). Miltefosine was administered orally at doses of 25 mg/kg or 50 mg/kg for 10 days and used as positive control of parasite suppression. The clinical efficacy was assessed by comparing lesion size (LS) after 10 days of treatment compared with the negative vehicle control as described by Grogl et al.. Therefore, percent suppression was defined as [(LS negative control–LS compound) / LS negative control] x 100. A parasite suppression ≥50% compared with the untreated control was considered significant anti-leishmanial activity. Lesion size (area in mm^2 = length x width) was measured using a digital caliper (Mitutoyo; Kawasaki, Japan).
The parasite burden of individual mice was assessed in vivo at the beginning and end of the experiment using the IVIS Spectrum equipment (Perkin Elmer) by injecting the animals with 1.5 mg luciferin (GoldBio) intradermally at the infection site. The ultrasensitive IVIS camera quantitatively measures the light emitted by the luciferase-transfected L. major upon exposure to the substrate (firefly luciferin). The mice were imaged under deep anesthesia using an isoflurane vaporizer. They were placed in a supine position in the pre-warmed IVIS box and the images were taken exactly 5 minutes after luciferin injection. The analysis was performed after defining a standard region of interest (ROI) over the infection site using the Living Image software (Xenogen Corporation, Almeda, CA). This protocol allowed us to determine the parasite burden in the same animal over multiple time points. Results were expressed in units of photons per second. […] This approach is in accordance with the criteria proposed for Leishmania in deciding when a compound qualifies to progress into ‘lead’ compound identification.

Leishmania mexicana = conditions: alone or in combination with pentostam; cited from earlier work
L. infantum [10] = system: L. infantum; set-up: method as in PMID 31002807; conditions: infected spleen macrophages from hamsters; cited from earlier work
[11] = AZ 0.06 mg/mouse intralesional, statistically non-significant
[12] = AZ 0.125 mg/mouse intralesional x3, luminometry
[13] = FX lower-dose regimens (40 mg/kg twice a day or 80 mg/kg once a day)

NCCc1c[nH]cn1 [histamine]
expression of H1R [1]: markedly increased the expression of H1R
expression of IL-1ẞ [1]: increased the expression of IL-1ẞ

C(=C\c1ccccc1)/CN1CCN(C(c2ccccc2)c2ccccc2)CC1 [cinnarizine]
parasite load in hamster spleen (L. infantum [2]): failed to significantly decrease the parasite load

Cc1ccc(/C(=C\CN2CCCC2)c2ccccn2)cc1 [Triprolidine]
EC50 (L. major [3]; Leishmania major, 48 h): 11.2 ± 4.2 µM
CC50 at 24 h [4]: 390 ± 27.9 µM

CN1CCCC(n2nc(Cc3ccc(Cl)cc3)c3ccccc3c2=O)CC1 (stereo not shown) [Azelastine]
intracellular amastigote suppression (L. major [5]; 0.5 μM, infected naive mouse peritoneal macrophages, 48 h): positive effect on intracellular amastigote suppression
parasite killing with primed T cells from infected mice (L. major [5]; in presence of AZ, versus macrophages alone or with naive lymphocytes): significantly enhanced parasite killing
suppressive effect against cultured promastigotes [6]: suppressive effect against cultured promastigotes only when used at concentrations 100-fold higher
EC50 (L. major [3]; Leishmania major, 48 h): 0.05 ± 0.02 µM
CC50 at 24 h [7]: 0.95 µM
side effects [8]: lack of side effects
reduction of parasite burden in lymph node (L. major [9]; [11]): 15%
reduction of parasite burden in the lesion (L. major [9]; [11]): 57%
reduction of parasite load in lymph node (L. major [9]; [12]): 36%
reduction of parasite load in the lesion (L. major [9]; [12]): 87%
lesion diminution compared with untreated controls (L. major [9]; AZ 0.125 mg/mouse, three intralesional injections every other day): 52%
weight loss or observable side effect (L. major [9]; AZ intralesional, 0.125 mg/mouse, listed as AZ): no observable side effects; also recorded: None of the mice treated with this compound presented weight loss or any observable side effect
decrease of the expression of IL-6 ([1]; qPCR, highly variable): 20.1± 21%
expression of H1R [1]: significantly inhibited its expression
expression of IL-1ẞ [1]: reduced the pro-inflammatory cytokine IL1-ẞ
CC50 at 24 h [4]: 45.1 ± 11.2 µM

CCCCCCCCCCCCCCCCOP(=O)([O-])OCC[N+](C)(C)C [Miltefosine]
EC50 (L. major [3]; Leishmania major, 48 h): 1.64 ± 0.26 µM
CC50 at 24 h [4]: 74.9 ± 5.01 µM

CN(C)CC[C@@H](c1ccc(Cl)cc1)c1ccccn1 [Dexchlorpheniramine maleate]
EC50 (L. major [3]; Leishmania major, 48 h): 35.2 ± 6.9 µM
CC50 at 24 h [4]: 177 ± 16.3 µM

CN/C(=N/CCSCc1nc[nH]c1C)NC#N [cimetidine]
treatment efficacy (Leishmania mexicana): effective

CN(C)CCN(Cc1ccc(Cl)cc1)c1ccccn1 [Chloropyramine]
EC50 (L. major [3]): 3.87 ± 0.2 µM
EC50 (L. major [3]; listed as chloropyramine): < 10 µM
CC50 at 24 h [4]: 140 ± 49.6 µM

C[C@@H]1[C@H](O)[C@@H](C)/C=C/C=C/C=C/C=C/C=C/C=C/C=C/[C@H](O[C@@H]2O[C@H](C)[C@@H](O)[C@H](N)[C@@H]2O)C[C@@H]2O[C@](O)(C[C@@H](O)C[C@@H](O)[C@H](O)CC[C@@H](O)C[C@@H](O)CC(=O)O[C@H]1C)C[C@H](O)[C@H]2C(=O)O [Amphotericin B]
EC50 (L. major [3]; Leishmania major, 48 h): 0.5 ± 0.01 µM
CC50 at 24 h [4]: 16.3 ± 1.49 µM

CN1CCN2c3ccccc3Cc3ccccc3C2C1 (stereo not shown) [Mianserin]
CC50 at 24 h [4]: 157 ± 19 µM

CN1CCC(=C2c3ccccc3C=Cc3ccccc32)CC1 [Cyproheptadine]
CC50 at 24 h [4]: 172 ± 41 µM

c1ccc2c(c1)Sc1ccccc1N2CC1CN2CCC1CC2 (stereo not shown) [Mequitazine]
EC50 (L. major [3]): 4.53 ± 3.9 µM
EC50 (L. major [3]; listed as mequitazine): < 10 µM
CC50 at 24 h [4]: 50.3 ± 8.75 µM

CC(C)(C(=O)O)c1ccc(C(O)CCCN2CCC(C(O)(c3ccccc3)c3ccccc3)CC2)cc1 (stereo not shown) [Fexofenadine]
EC50 (L. major [3]; Leishmania major, 48 h): 1.5 ± 0.18 µM
IC50 (L. infantum [10]): > 100 µM
reduction in lesion size (L. major [9]; FX 40 mg/kg PO twice a day): 50%
reduction in lesion size (L. major [9]; FX 80 mg/kg PO once a day): 37%
loss of body weight (L. major [9]; FX 80 mg/kg PO twice a day): ≤ 5%
reduction in lesion size compared with untreated control (L. major [9]; FX 80 mg/kg PO twice a day): 69%
reduction in parasite burden at the lesion site (L. major [9]; FX 80 mg/kg PO twice a day): 82%
reduction in parasite burden in draining lymph nodes (L. major [9]; FX 80 mg/kg PO twice a day): 81%
clinical side effects (L. major [9]; FX PO, 80 mg/kg twice a day, listed as FX, 80 mg/kg): no observable side effects; also recorded: no other clinical side effect was found
reduction of parasite load in lesions (L. major [9]; [13]): up to 59%
reduction of parasite load in lymph nodes (L. major [9]; [13]): ≤ 72%

CN1CCC(=C2c3ccccc3CC(=O)c3sccc32)CC1 [Ketotifen]
EC50 (L. major [3]; Leishmania major, 48 h): 11.86 ± 0.1 µM
CC50 at 24 h [4]: 282 ± 22.9 µM
